According to PubChem BioAssay AID1918944 (Molecular Pharmacology Branch, DTP, NCI, 2023):

System: 786-0 complex spheroid viability
Experiment: Anticancer human tumor 786-0 cell line growth inhibition;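 also: spheroids exposed to agents for seven days before readout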
Details: for IC50: curve of first compound; for viability, T/C: stronger effect = lower value
Summary of the method: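 Drug combinations with the LSD1 inhibitor iadademstat tested on tumor cells co-cultured as spheroids with endothelial cells and mesenchymal stem cells. Concentrations descended in half-log increments from clinical Cmax or 10 microM.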

[1] = second compound 0.1 µM, first compound 0.000949 µM
[2] = second compound 0.1 µM, first compound 0.003 µM
[3] = second compound 0.1 µM, first compound 0.00949 µM
[4] = second compound 0.1 µM, first compound 0.03 µM
[5] = second compound 0.1 µM, first compound 0.0949 µM
[6] = second compound 0.1 µM, first compound 0.3 µM
[7] = second compound 0.316 µM, first compound 0.000949 µM
[8] = second compound 0.316 µM, first compound 0.003 µM
[9] = second compound 0.316 µM, first compound 0.00949 µM
[10] = second compound 0.316 µM, first compound 0.03 µM
[11] = second compound 0.316 µM, first compound 0.0949 µM
[12] = second compound 0.316 µM, first compound 0.3 µM
[13] = second compound 1 µM, first compound 0.000949 µM
[14] = second compound 1 µM, first compound 0.003 µM
[15] = second compound 1 µM, first compound 0.00949 µM
[16] = second compound 1 µM, first compound 0.03 µM
[17] = second compound 1 µM, first compound 0.0949 µM
[18] = second compound 1 µM, first compound 0.3 µM
[19] = second compound 3.16 µM, first compound 0.000949 µM
[20] = second compound 3.16 µM, first compound 0.003 µM
[21] = second compound 3.16 µM, first compound 0.00949 µM
[22] = second compound 3.16 µM, first compound 0.03 µM
[23] = second compound 3.16 µM, first compound 0.0949 µM
[24] = second compound 3.16 µM, first compound 0.3 µM
[25] = second compound 10 µM, first compound 0.000949 µM
[26] = second compound 10 µM, first compound 0.003 µM
[27] = second compound 10 µM, first compound 0.00949 µM
[28] = second compound 10 µM, first compound 0.03 µM
[29] = second compound 10 µM, first compound 0.0949 µM
[30] = second compound 10 µM, first compound 0.3 µM

Nc1ccn(C2OC(CO)C(O)C2(F)F)c(=O)n1 (stereo not given) + NC1CCC(NC2CC2c2ccccc2)CC1
IC50 (second compound 0.1 µM): < 0.949 nM
IC50 (second compound 0.316 µM): < 0.949 nM
IC50 (second compound 1 µM): < 0.949 nM
IC50 (second compound 3.16 µM): < 0.949 nM
IC50 (second compound 10 µM): < 0.949 nM
viability, T/C [1]: 4.09%
viability, T/C [2]: 2.17%
viability, T/C [3]: 2.51%
viability, T/C [4]: 5.79%
viability, T/C [5]: 3.38%
viability, T/C [6]: 3.63%
viability, T/C [7]: 4.14%
viability, T/C [8]: 2.73%
viability, T/C [9]: 2.97%
viability, T/C [10]: 3.95%
viability, T/C [11]: 3.04%
viability, T/C [12]: 3.93%
viability, T/C [13]: 4.18%
viability, T/C [14]: 4.49%
viability, T/C [15]: 3.51%
viability, T/C [16]: 3.28%
viability, T/C [17]: 5.66%
viability, T/C [18]: 4.13%
viability, T/C [19]: 5.7%
viability, T/C [20]: 3.25%
viability, T/C [21]: 3.12%
viability, T/C [22]: 3.88%
viability, T/C [23]: 3.97%
viability, T/C [24]: 4.18%
viability, T/C [25]: 4.1%
viability, T/C [26]: 2.62%
viability, T/C [27]: 3%
viability, T/C [28]: 3.34%
viability, T/C [29]: 2.68%
viability, T/C [30]: 3.7%

COc1ccc([C@@H](O)c2cc(-c3ncnc4cc(N5CCOCC5)ccc34)c(F)cc2Cl)nn1 + NC1CC1c1ccc(-c2cccc(O)c2)cc1
IC50 (second compound 0.1 µM): 3590 nM
IC50 (second compound 0.316 µM): 4960 nM
IC50 (second compound 1 µM): 3760 nM
IC50 (second compound 3.16 µM): 2790 nM
IC50 (second compound 10 µM): 2200 nM
viability, T/C (second compound 0.1 µM, first compound 0.0316 µM): 98.2%
viability, T/C (second compound 0.1 µM, first compound 0.1 µM): 100%
viability, T/C (second compound 0.1 µM, first compound 0.316 µM): 96.2%
viability, T/C (second compound 0.1 µM, first compound 1 µM): 79.2%
viability, T/C (second compound 0.1 µM, first compound 3.16 µM): 52%
viability, T/C (second compound 0.1 µM, first compound 10 µM): 37%
viability, T/C (second compound 0.316 µM, first compound 0.0316 µM): 108%
viability, T/C (second compound 0.316 µM, first compound 0.1 µM): 110%
viability, T/C (second compound 0.316 µM, first compound 0.316 µM): 102%
viability, T/C (second compound 0.316 µM, first compound 1 µM): 86.9%
viability, T/C (second compound 0.316 µM, first compound 3.16 µM): 56.2%
viability, T/C (second compound 0.316 µM, first compound 10 µM): 40%
viability, T/C (second compound 1 µM, first compound 0.0316 µM): 101%
viability, T/C (second compound 1 µM, first compound 0.1 µM): 92.9%
viability, T/C (second compound 1 µM, first compound 0.316 µM): 93%
viability, T/C (second compound 1 µM, first compound 1 µM): 80%
viability, T/C (second compound 1 µM, first compound 3.16 µM): 51.7%
viability, T/C (second compound 1 µM, first compound 10 µM): 38%
viability, T/C (second compound 3.16 µM, first compound 0.0316 µM): 90.1%
viability, T/C (second compound 3.16 µM, first compound 0.1 µM): 93.7%
viability, T/C (second compound 3.16 µM, first compound 0.316 µM): 88.2%
viability, T/C (second compound 3.16 µM, first compound 1 µM): 78.1%
viability, T/C (second compound 3.16 µM, first compound 3.16 µM): 46.3%
viability, T/C (second compound 3.16 µM, first compound 10 µM): 38.4%
viability, T/C (second compound 10 µM, first compound 0.0316 µM): 92.3%
viability, T/C (second compound 10 µM, first compound 0.1 µM): 84.5%
viability, T/C (second compound 10 µM, first compound 0.316 µM): 81.3%
viability, T/C (second compound 10 µM, first compound 1 µM): 65.7%
viability, T/C (second compound 10 µM, first compound 3.16 µM): 41.8%
viability, T/C (second compound 10 µM, first compound 10 µM): 34.7%

Nc1ncn(C2CC(O)C(CO)S2)c(=O)n1 (stereo not given) + NC1CCC(NC2CC2c2ccccc2)CC1
IC50 (second compound 0.1 µM): 198 nM
IC50 (second compound 0.316 µM): 207 nM
IC50 (second compound 1 µM): 201 nM
IC50 (second compound 3.16 µM): 174 nM
IC50 (second compound 10 µM): 141 nM
viability, T/C [1]: 127%
viability, T/C [2]: 127%
viability, T/C [3]: 130%
viability, T/C [4]: 111%
viability, T/C [5]: 78.3%
viability, T/C [6]: 34.1%
viability, T/C [7]: 135%
viability, T/C [8]: 131%
viability, T/C [9]: 130%
viability, T/C [10]: 120%
viability, T/C [11]: 77.1%
viability, T/C [12]: 37%
viability, T/C [13]: 122%
viability, T/C [14]: 123%
viability, T/C [15]: 128%
viability, T/C [16]: 115%
viability, T/C [17]: 74.5%
viability, T/C [18]: 36.9%
viability, T/C [19]: 117%
viability, T/C [20]: 126%
viability, T/C [21]: 126%
viability, T/C [22]: 108%
viability, T/C [23]: 70.2%
viability, T/C [24]: 32.2%
viability, T/C [25]: 93.6%
viability, T/C [26]: 91.8%
viability, T/C [27]: 104%
viability, T/C [28]: 98.6%
viability, T/C [29]: 61.9%
viability, T/C [30]: 27%
